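Results reflect a 48-hour exposure of cells in 96-well plates to compound at five concentrations. GI50: concentration for 50% inhibition of growth.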 Calls of active or inactive are those of the source. Cut-off read from the data, not from the text of the source: active = GI50 up to about 1.1 µM and inactive = higher.
Columns and labels:
Experiment in all cases: inhibition of tumour cell growth, NCI panel, 48 h
A549 = system: A549
HCT-15 = system: HCT-15
Malme-3M = system: Malme-3M
SK-MEL-5 = system: SK-MEL-5
U-251 = system: U-251
SF-295 = system: SF-295
M14 = system: M14
OVCAR-4 = system: OVCAR-4
786-0 = system: 786-0
EKVX = system: EKVX
HL-60 = system: HL-60
Hs-578T = system: Hs-578T
A498 = system: A498
NCI/ADR-RES = system: NCI/ADR-RES
HOP-92 = system: HOP-92
SF-268 = system: SF-268
SF-539 = system: SF-539
UO-31 = system: UO-31
SNB-75 = system: SNB-75
SR = system: SR

SMILES | GI50 (A549) | GI50 (HCT-15) | GI50 (Malme-3M) | GI50 (SK-MEL-5) | GI50 (U-251) | GI50 (SF-295) | GI50 (M14) | GI50 (OVCAR-4) | GI50 (786-0) | GI50 (EKVX) | GI50 (HL-60) | GI50 (Hs-578T) | GI50 (A498) | GI50 (NCI/ADR-RES) | GI50 (HOP-92) | GI50 (SF-268) | GI50 (SF-539) | GI50 (UO-31) | GI50 (SNB-75) | GI50 (SR)
CC[C@@H]1CN2CCC1C[C@@H]2C(O)c1ccnc2ccc(OCCN3CCN(CCOc4ccc5nccc(C(O)[C@@H]6C[C@@H]7CCN6C[C@@H]7CC)c5c4)CC3)cc12 (some centres not stated) | 15.3 µM (inactive) | 24.2 µM | 24.8 µM (inactive) | 15 µM (inactive) | 16.7 µM (inactive) | 16.3 µM (inactive) | 12.8 µM (inactive) | 19.8 µM (inactive) | 13.4 µM (inactive) | 17.1 µM (inactive) | 21.9 µM (inactive) | 15.3 µM (inactive) | 20.2 µM (inactive) | > 100 µM (inactive) | 8.81 µM (inactive) | 18.4 µM (inactive) | 13.8 µM (inactive) |  |  | 
O=[N+]([O-])C(=C1NCCN1)/C(Cl)=C(/Cl)N1CCOCC1 | > 100 µM (inactive) | > 100 µM | > 100 µM (inactive) |  | > 100 µM (inactive) | > 100 µM (inactive) | > 100 µM (inactive) | > 100 µM (inactive) | > 100 µM (inactive) | > 100 µM (inactive) |  | > 100 µM (inactive) | > 100 µM (inactive) | > 100 µM (inactive) |  | > 100 µM (inactive) | > 100 µM (inactive) | > 100 µM (inactive) | > 100 µM (inactive) | 
CN1C2CCC1CN(CCOC(c1ccc(F)cc1)c1ccc(F)cc1)C2 | 65 µM (inactive) | 32.9 µM | 17.9 µM (inactive) | 14.4 µM (inactive) | 26.1 µM (inactive) | 19.1 µM (inactive) | 20.1 µM (inactive) | 43.8 µM (inactive) | 19.6 µM (inactive) | 23.8 µM (inactive) | 12.6 µM (inactive) | 42.7 µM (inactive) | 24.8 µM (inactive) | 35.4 µM (inactive) | 21.4 µM (inactive) | 46.7 µM (inactive) | 16.6 µM (inactive) | 33.2 µM (inactive) | 26.5 µM (inactive) | 
C#CC(O)(c1nc2ccccc2s1)c1nc2ccccc2s1 | 29 µM (inactive) | 20.2 µM | 27 µM (inactive) | 15.6 µM (inactive) | 18.7 µM (inactive) | 24 µM (inactive) | 15.5 µM (inactive) | 25.8 µM (inactive) | 18.5 µM (inactive) | 19.3 µM (inactive) | 21 µM (inactive) | 36.4 µM (inactive) | 16.9 µM (inactive) | 26.2 µM (inactive) | 16.1 µM (inactive) | 28.5 µM (inactive) | 17.4 µM (inactive) | 15 µM (inactive) |  | 
O=C(O)c1ccc(N/C(=C(/C(Cl)=C(Cl)Cl)[N+](=O)[O-])n2nnc3ccccc32)cc1 | > 100 µM (inactive) | > 100 µM | > 100 µM (inactive) |  | > 100 µM (inactive) | > 100 µM (inactive) | > 100 µM (inactive) | > 100 µM (inactive) | > 100 µM (inactive) | > 100 µM (inactive) |  | > 100 µM (inactive) | > 100 µM (inactive) | > 100 µM (inactive) |  | > 100 µM (inactive) | > 100 µM (inactive) | > 100 µM (inactive) |  | 
Cc1ccc(/C=N/Nc2cnccn2)s1 | > 100 µM (inactive) | > 100 µM | > 100 µM (inactive) | > 100 µM (inactive) | > 100 µM (inactive) | > 100 µM (inactive) | > 100 µM (inactive) | > 100 µM (inactive) | > 100 µM (inactive) | 80.5 µM (inactive) | > 100 µM (inactive) | > 100 µM (inactive) |  | > 100 µM (inactive) | > 100 µM (inactive) | > 100 µM (inactive) | > 100 µM (inactive) | > 100 µM (inactive) | > 100 µM (inactive) | 
CCOC(OCC)C(CC)[Se]c1ccccc1[N+](=O)[O-] (configuration not stated) | 4.79 µM (inactive) | 1.57 µM | 7.28 µM (inactive) | 2.42 µM (inactive) | 2.51 µM (inactive) | 2.32 µM (inactive) | 1.63 µM (inactive) | > 55.5 µM (inactive) | 3.41 µM (inactive) | 5.7 µM (inactive) | 0.418 µM (active) | 3.18 µM (inactive) | 2.17 µM (inactive) |  | > 22.2 µM (inactive) | 8.04 µM (inactive) | 2.02 µM (inactive) | 7.43 µM (inactive) | 3.45 µM (inactive) | 0.593 µM (active)
Cc1ccccc1/N=N/c1ccc(/N=N/c2c(O)ccc3ccccc23)c(C)c1 [SCARLET RED] | > 100 µM (inactive) | > 100 µM | > 100 µM (inactive) | > 100 µM (inactive) | > 100 µM (inactive) | 56.8 µM (inactive) | > 100 µM (inactive) | > 100 µM (inactive) | > 100 µM (inactive) | > 100 µM (inactive) |  | 44.2 µM (inactive) | > 100 µM (inactive) | > 100 µM (inactive) | > 100 µM (inactive) | 70.3 µM (inactive) |  | > 100 µM (inactive) | 72.1 µM (inactive) | 
O=C(O)CCSc1ncnc2[nH]cnc12 | > 100 µM (inactive) | > 100 µM | > 100 µM (inactive) | > 100 µM (inactive) | > 100 µM (inactive) | > 100 µM (inactive) | > 100 µM (inactive) | > 100 µM (inactive) | > 100 µM (inactive) | > 100 µM (inactive) | > 100 µM (inactive) | > 100 µM (inactive) | > 100 µM (inactive) | > 100 µM (inactive) | 27.1 µM (inactive) | > 100 µM (inactive) | > 100 µM (inactive) | > 100 µM (inactive) |  | 
CC(C)[C@H]1NC(=O)[C@H]2N=C(O[C@@H]2C)[C@@H]2CCCN2C(=O)[C@H](Cc2ccccc2)NC(=O)[C@@H]2COC(=N2)[C@@H](Cc2ccccc2)NC(=O)[C@@H]2COC1=N2 | > 100 µM (inactive) | > 100 µM | > 100 µM (inactive) | > 100 µM (inactive) | > 100 µM (inactive) | > 100 µM (inactive) | > 100 µM (inactive) | > 100 µM (inactive) | > 100 µM (inactive) | > 100 µM (inactive) | > 100 µM (inactive) | > 100 µM (inactive) |  | > 100 µM (inactive) |  | > 100 µM (inactive) | > 100 µM (inactive) | > 100 µM (inactive) | 0.428 µM (active) | 
COc1ccc2c(n1)Sc1nc3ccccc3nc1N2 | > 100 µM (inactive) | 24.9 µM | 29 µM (inactive) | > 100 µM (inactive) | 19.4 µM (inactive) | 26.7 µM (inactive) | > 100 µM (inactive) | 67.3 µM (inactive) | 26.8 µM (inactive) | 12.6 µM (inactive) |  | 27.9 µM (inactive) | > 100 µM (inactive) | 24.7 µM (inactive) | 78.5 µM (inactive) | 58.5 µM (inactive) | 14.4 µM (inactive) | 20 µM (inactive) | 25.5 µM (inactive) | 
